Laboratory results: the supplement of paper PMC11451515

Columns and labels:
Experiment in all cases: AUC of viability dose-response curve (% viability x log10 dose units); higher = less sensitive
Settings in all cases: 48 h
NOMO1 = test system: NOMO1
How it was run: (§1)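 Over 48 h at 37°C, leukemia cells in 1536-well plates (500 or 1000 cells/well), adapted to each medium, received library compounds in DMSO at 11 threefold doses from 47 μM to 0.79 nM. CellTiter-Glo One luminescence, normalised per plate to DMSO and cell-free wells, was fitted by a four-parameter log-logistic function of log10 dose. The area under the curve was then integrated by trapezoidal rule, after scaling curves above full viability and removing those that failed quality control.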

P12-Ichikawa = test system: P12-Ichikawa
How it was run: as §1

SEM cells = test system: SEM cells
How it was run: as §1

[1] = RPMI 5 mM glucose + 10% dialyzed FBS

SMILES	AUC of viability dose-response curve (NOMO1; HPLM + 10% dialyzed FBS)	AUC of viability dose-response curve (NOMO1; RPMI 5 mM glucose + 10% FBS)	AUC of viability dose-response curve (NOMO1; [1])	AUC of viability dose-response curve (P12-Ichikawa; HPLM + 10% dialyzed FBS)	AUC of viability dose-response curve (P12-Ichikawa; RPMI 5 mM glucose + 10% FBS)	AUC of viability dose-response curve (P12-Ichikawa; [1])	AUC of viability dose-response curve (SEM cells; HPLM + 10% dialyzed FBS)	AUC of viability dose-response curve (SEM cells; RPMI 5 mM glucose + 10% FBS)	AUC of viability dose-response curve (SEM cells; [1])
COC(=O)C\1=C(C)\N\C(=C(/C1C2=CC=CC3=NON=C23)C(=O)OC(C)C)C (stereo not given)	437	441	464	455	454	438	468	449	457
CC#CCn1c(N2CCC[C@@H](N)C2)nc2c1c(=O)n(Cc1nc(C)c3ccccc3n1)c(=O)n2C	471	443	457	473	450	449	475	460	433
CNc1nc(Nc2cnn([C@H]3CCN(C4COC4)C[C@@H]3F)c2Cl)ncc1C(F)(F)F	316	360	391	368	400	397	388	276	363
COC1=C(OCCCN2CCOCC2)C=C3N=CC=C(OC4=CC=C(C=C4F)\C5=C\N=C(\NC6=CC=C(F)C=C6)N(C)C5=O)C3=C1	441	447	429	447	448	445	282	297	258
CN1CCCN(CC1)C2=CC=C3C(=O)\C(=C/4SC5=C(C=CC=C5)N4C3=N2)C(=O)NCC6=CN=C(C)C=N6	442	468	450	447	410	420	417	335	374
CC1=CC(=CC(=C1C\C2=N\CCN2)C)C(C)(C)C	395	420	407	473	458	463	443	471	460
O=C(CCCN1CCN(c2ccc(F)cc2)CC1)NC1c2ccccc2CSc2ccccc21 (stereo not given)	427	440	438	455	434	434	429	388	402
Cc1ccnc2c1NC(=O)c1cccnc1N2C1CC1	405	424	436	474	464	473	457	439	444
Nc1c2c(nc3ccccc13)CCCC2	352	376	388	434	440	433	431	390	402
Cc1cccc(Nc2ccncc2[S+](=O)([O-])NC(=O)NC(C)C)c1	442	412	415	450	457	425	409	457	459
CCOC(=O)C(C)OC1=CC=CC2=C1\C=C/N(CC(=O)NC3=CC=C4OCCOC4=C3)C2=O (stereo not given)	441	434	442	442	452	436	453	441	443
Nc1ccc([S+](=O)([O-])Nc2ccnn2-c2ccccc2)cc1	446	467	451	470	455	464	444	452	440
Nc1ncnc2c1ncn2[C@@H]1O[C@H](CO)C[C@H]1O	439	420	445	442	439	430	426	445	416
C[C@]12CC[C@H]3[C@@H](CCC4=CC(=O)CC[C@@H]43)[C@@H]1CC[C@@H]2OC(=O)CCc1ccccc1	463	469	466	469	474	470	415	416	443
CNC(=O)c1ccc(Nc2cc(Nc3ccccc3[S+](=O)([O-])C(C)C)c3cc[nH]c3n2)nc1	422	407	414	367	355	377	319	345	323
O=C(O)c1cc(/N=N/c2ccc([S+](=O)([O-])Nc3ccccn3)cc2)ccc1O	471	466	470	465	468	474	452	465	453
CC(C(=O)O)c1ccc2c(c1)CC(=O)c1ccccc1S2 (stereo not given)	389	418	415	427	418	425	440	461	458
O=C(O)CCNC(=O)c1ccc(/N=N/c2ccc(O)c(C(=O)O)c2)cc1	465	469	468	469	447	443	443	454	464
CC(C)c1cc(C(C)C)c(CC(=O)N[S+](=O)([O-])Oc2c(C(C)C)cccc2C(C)C)c(C(C)C)c1	445	439	426	469	469	451	471	467	464
CN1\C=N/C2=CC=C(NC3=CC(=CC=C3C)NC(=O)C4=CC(=CC=C4)C(C)(C)C#N)C=C2C1=O	376	377	355	421	395	422	424	431	433
CN(C)CC(C)(C)CNc1nn2c(-c3ccccc3)nnc2cc1C1CCC1	416	447	459	411	405	433			
C=C[C@H]1CN2CCC1C[C@@H]2C(O)c1ccnc2ccc(OC)cc12 (stereo not given in full)	462	467	463	473	470	467			
COC1=C(OCCCN2CCOCC2)C=CC\3=C1/N=C(/NC(=O)C4=CN=C(N)N=C4)N5CC/N=C35				385	344	364	369	360	358
NC[C@H]1O[C@H](O[C@@H]2[C@H](O)[C@@H](O[C@H]3O[C@H](CO)[C@@H](O)[C@H](N)[C@H]3O)[C@H](N)C[C@@H]2N)[C@H](O)[C@@H](O)[C@@H]1O	455	452	458	445	466	461			

SMILES	AUC of viability dose-response curve (NOMO1; HPLM + 10% dialyzed FBS)	AUC of viability dose-response curve (NOMO1; RPMI 5 mM glucose + 10% FBS)	AUC of viability dose-response curve (NOMO1; [1])	AUC of viability dose-response curve (P12-Ichikawa; HPLM + 10% dialyzed FBS)	AUC of viability dose-response curve (P12-Ichikawa; RPMI 5 mM glucose + 10% FBS)	AUC of viability dose-response curve (P12-Ichikawa; [1])	AUC of viability dose-response curve (SEM cells; HPLM + 10% dialyzed FBS)	AUC of viability dose-response curve (SEM cells; RPMI 5 mM glucose + 10% FBS)	AUC of viability dose-response curve (SEM cells; [1])
COc1cc2c(cc1OC)CN(CCc1ccc(NC(=O)c3cc(OC)c(OC)cc3NC(=O)c3cnc4ccccc4c3)cc1)CC2	459	458	464	412	401	402	445	418	432
CC(=O)Oc1ccccc1C(=O)Nc1ncc([N+](=O)[O-])s1	459	464	420	457	446	442	441	454	470
COc1c(C)c2c(c(O)c1C/C=C(\C)CCC(=O)O)C(=O)OC2	421	425	428	426	392	404	436	414	445
COc1cccc2c1C(=O)c1c(O)c3c(c(O)c1C2=O)C[C@@](O)(C(=O)CO)C[C@@H]3O[C@H]1C[C@H](N)[C@H](O)[C@H](C)O1	367	369	374	338	326	346	286	268	271
C[C@@H]1CCO[C@H]2CN\3/C=C(/C(=O)NCC4=C(F)C=C(F)C=C4)C(=O)\C(=C3C(=O)N12)O	458	442	452	456	460	459	447	454	465
CCCCCCCCCCCCCC(=O)N[C@H](CO)[C@H](O)c1ccc([N+](=O)[O-])cc1	342	323	327	369	328	318	296	276	280
COc1cc[nH]c2ncc(C(=O)C(=O)N3CCN(C(=O)c4ccccc4)C[C@H]3C)c1-2	389	461	452	455	463	470	419	453	428
C=CC(=O)Nc1cc2c(Nc3ccc(F)c(Cl)c3)ncnc2cc1OCCCN1CCOCC1	421	429	438	421	441	442			
CC12CC3CC(C)(C1)CC(N)(C3)C2	446	457	461	450	464	467	440	419	459
C[C@@H](CN1CC(=O)NC(=O)C1)N1CC(=O)NC(=O)C1	273	296	301	278	317	303	233	206	198
COC1=CC=C(C(=C1)OC(C)C)C/2=N/[C@@H]([C@@H](N2C(=O)N3CCNC(=O)C3)C4=CC=C(Cl)C=C4)C5=CC=C(Cl)C=C5	409	439	434	404	427	413	279	250	253
CCCNC(=O)Nc1ccc(Oc2ncnc3cc(OC)c(OC)cc23)cc1Cl	419	417	424	438	433	440	441	402	413
NC(=O)c1ccc(N(C(N)=O)c2c(F)cccc2F)nc1-c1ccc(F)cc1F	472	447	429	476	468	449	412	454	411
O=C(O)C(=O)c1cn(Cc2ccccc2)c2ccc(-c3ccc(OC(F)(F)F)cc3)cc12	449	460	443	456	471	466	451	448	444
CC(C)(O)CC(=O)NCCn1ccc2ncnc(Nc3ccc(Oc4cccc(C(F)(F)F)c4)c(Cl)c3)c21	415	450	433	425	437	436	436	415	432
N[C@@H]1CONC1=O	474	441	464	468	474	465	418	443	431
CCCCOc1c(C(=O)c2c(F)cc(C)cc2F)cnc2[nH]ncc12	460	444	424	470	458	435	410	410	413
O=P(O)(O)C(O)(Cn1ccnc1)P(=O)(O)O	471	474	477	448	445	450	427	425	424
COC(=O)c1ccc2c(c1)NC(=O)/C2=C(\Nc1ccc(N(C)C(=O)CN2CCN(C)CC2)cc1)c1ccccc1	453	459	441	458	462	451			
Cc1ccccc1C(=O)Nc1ccc(C(=O)N2CCCC(O)c3cc(Cl)ccc32)c(C)c1 (stereo not given)	452	471	471	461	462	469	460	455	446
Cc1coc2c1C(=O)C(=O)c1c-2ccc2c1CCCC2(C)C	437	455	450	450	444	438	439	432	421
CCCCOCCOc1nc(-c2ccc(C(=O)O)c(F)c2)sc1C	420	437	436	464	434	439	456	460	475
COc1ccc(C(=O)c2c(C)n(CCN3CCOCC3)c3cc(I)ccc23)cc1	354	344	357	381	381	409	461	461	458
